Assay results published in article PMC5352051, “Identification of a novel Polo-like kinase 1 inhibitor that specifically blocks the functions of Polo-Box domain” (Oncotarget, 2016).

How the values were obtained:
Plk1 PBD = biological target: T1, Plk1 PBD (Homo sapiens, UniProt P53350); experiment: Circular dichroism spectroscopy; conditions: complex with T521
T1 construct: (326-603 aa), Plk2 (355-685 aa), and Plk3 (335-646 aa); 6xHis (N); 6xHis (C); made in house; host or cells: E. coli Rosetta BL21(DE3)
Description: PAGE, and then the stained band was excised from The raw data was processed using Proteome the polyacrylamide gel, washed twice with water, and Discoverer software (Thermo Fischer). MS2 spectra destained with 40% ACN/50 mM NH4HCO3. The gel were searched with SEQUEST engine against target Plk1 pieces were dehydrated with 100% ACN and dried for protein and common pollution proteins database (246 5 min using a speedvac. Disulfide bonds were reduced Protein Sequences). Database searches were performed by treatment with DTT (10 mM, 56°C, 45 min), and the with the following parameters: precursor mass tolerance free sulfhydryl groups were alkylated with iodoacetamide 20 ppm; MS/MS mass tolerance 0.6 Da; two missed (55 mM, 25°C, 60 min in the dark). After drying with cleavage for tryptic peptides; variable modifications a speedvac, the gel was rehydrated using 100 ng/μL oxidation (M), T521 fragment modification (+301.02) trypsin (50 mM NH4HCO3, pH8.3) on ice for 30 min, (K, R), fixed modification Carbamidomethyl (C), the and the digestion was carried out at 37°C for 60 min and results were filtered for a 1% false discovery rate (FDR) then quenched with 1.0% FA. The tryptic peptides were at the PSM level utilizing the percolator-based algorithm. extracted twice with 60% ACN containing 0.1% FA, and Peptide identifications were grouped into proteins then the combined digest solution was concentrated to 25 according to the law of parsimony. […]
B; 90–91 min, 80%–4% B; 91–100 min, 4% B. Eluting the calculation of mean residue ellipticity. […] Three MS spectra were acquired from m/z 300 to m/z 1,800, and independent experiments were performed for each sample. the 10 most intense ions with charges more than 2 and Spectral deconvolution of CD data was performed using above an intensity threshold 500 were fragmented in the CDNN to determine relative quantities of α-helix, linear ion trap using normalized collision energy of 35%. β-sheet, β-turn and random coil. […]

Plk3 PBD = biological target: T2, Plk3 PBD (Homo sapiens, UniProt Q9H4B4); experiment: Fluorescence polarization assay, Plk3 PBD / FITC-labeled phosphopeptide; format: binding; conditions: Plk3 PBD
T2 construct: (326-603 aa), Plk2 (355-685 aa), and Plk3 (335-646 aa); GST (N); made in house; host or cells: E. coli Rosetta BL21(DE3)
T2 sequence (Q9H4B4 335-646): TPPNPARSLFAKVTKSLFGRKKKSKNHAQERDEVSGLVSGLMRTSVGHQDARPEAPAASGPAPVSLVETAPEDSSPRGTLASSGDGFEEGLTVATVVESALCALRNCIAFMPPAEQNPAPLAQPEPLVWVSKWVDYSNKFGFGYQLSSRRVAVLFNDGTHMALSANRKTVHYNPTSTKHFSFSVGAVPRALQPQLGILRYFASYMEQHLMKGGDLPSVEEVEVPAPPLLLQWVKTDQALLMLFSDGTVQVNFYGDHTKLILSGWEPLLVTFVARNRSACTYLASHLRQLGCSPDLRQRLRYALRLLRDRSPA
Description: FP assay was performed as follow. […] We calculated the percentage of inhibition for each sample as follows: Inhibition(%)=Negative−Sample/Negative−Positive×100%
We plotted the inhibition values and determined IC50 using GraphPad Prism5.0. Together with the FITC-labeled peptides used for Plk1 PBD as mentioned above, the following peptides were used for specificity assays, FITC-GPMQTSpTPKNG-OH (Plk2 PBD), FITC-GPLATSpTPKNG-OH (Plk3 PBD).

MCF-7 = experiment: MTT assay; format: cell-based; conditions: Homo sapiens, MCF7; MCF-7, Breast, tumor; read-out: IC50 proliferation
Description: (§1) The MTT assay was performed as described. In brief, cells were seeded at 3000~5000 cells/well into 96-well plates (200 μL/well) and incubated overnight. We replaced the growth medium with fresh medium containing T521 at several concentrations (two-fold dilutions and the initial concentration is 50 μM, 10 reactions total). After further incubation for 48 hrs in the presence of T521, the medium was removed from all wells and the cells were incubated with 200 μL of fresh medium for additional 24 hrs. We then added 22 μL of MTT solution (Amresco; 5 mg/mL in PBS) to each well and incubated the plate for 4 hrs at 37°C. After removing the medium, we dissolved the purple MTT-formazan crystals by adding 150 μL of DMSO to each well and recorded absorbance at 560 nm by Envision Multilabel Reader (PerkinElmer). The inhibition curve was plotted to determine the IC50 of various cell lines using GraphPad Prism5.0.

L02 = experiment: MTT assay; format: cell-based; conditions: Homo sapiens; L02, Liver, normal; read-out: IC50 proliferation
Description: as §1

HCT-116 = experiment: MTT assay; format: cell-based; conditions: Homo sapiens; HCT-116, Colon, tumor; read-out: IC50 proliferation
Description: as §1

HeLa = experiment: MTT assay; format: cell-based; conditions: Homo sapiens, Cervix, tumor, read-out: IC50 proliferation
Description: as §1

HepG2 = experiment: MTT assay; format: cell-based; conditions: Homo sapiens; HepG2, Liver, tumor; read-out: IC50 proliferation
Description: as §1

T1 sequence (P53350 326-603): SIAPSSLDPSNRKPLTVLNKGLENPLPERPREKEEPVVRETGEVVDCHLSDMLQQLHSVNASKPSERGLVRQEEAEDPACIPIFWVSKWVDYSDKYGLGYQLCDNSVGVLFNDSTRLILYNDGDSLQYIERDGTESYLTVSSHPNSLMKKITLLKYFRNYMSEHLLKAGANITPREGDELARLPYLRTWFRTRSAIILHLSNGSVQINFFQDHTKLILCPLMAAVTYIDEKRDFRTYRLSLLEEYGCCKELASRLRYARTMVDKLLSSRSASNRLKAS

Q: What does the source list for CCS(=O)(=O)c1oc(-c2ccc(F)cc2)nc1S(=O)(=O)c1ccccc1 [T521, 5-(ethylsulfonyl)-2-(4-fluorophenyl)-4-(phenylsulfonyl) oxazole]?
A: β-turn composition of Plk1 PBD complex (Plk1 PBD; native Plk1 PBD 21.08%): 29.59%; α-helix composition of Plk1 PBD complex (Plk1 PBD; native Plk1 PBD 26.18%): 11.63%; random coil composition of Plk1 PBD complex (Plk1 PBD; native Plk1 PBD 34.80%): 41.46%; IC50 (Plk3 PBD; FP assay, 1 hr preincubation at RT, read-out: Apparent IC50): > 500 µM; inhibition of binding of PBD to FITC-labeled phosphopeptide (Plk3 PBD; concentration as high as 500 μM): little inhibition; IC50 (MCF-7): 1.58 µM; IC50 (L02): 7.11 µM; IC50 (HCT-116): 3.55 µM; IC50 (HeLa): 4.43 µM; IC50 (HepG2): 3.17 µM
